Data on 36 molecules can be found in patent publication US20090325964A1, “Piperazine Metabotropic Glutamate Receptor 5 (MGLUR5) Negative Allosteric Modulators For Anxiety/Depression” (Wyeth, priority 2008, published 2009).

T1 sequence (P31424 21-1203): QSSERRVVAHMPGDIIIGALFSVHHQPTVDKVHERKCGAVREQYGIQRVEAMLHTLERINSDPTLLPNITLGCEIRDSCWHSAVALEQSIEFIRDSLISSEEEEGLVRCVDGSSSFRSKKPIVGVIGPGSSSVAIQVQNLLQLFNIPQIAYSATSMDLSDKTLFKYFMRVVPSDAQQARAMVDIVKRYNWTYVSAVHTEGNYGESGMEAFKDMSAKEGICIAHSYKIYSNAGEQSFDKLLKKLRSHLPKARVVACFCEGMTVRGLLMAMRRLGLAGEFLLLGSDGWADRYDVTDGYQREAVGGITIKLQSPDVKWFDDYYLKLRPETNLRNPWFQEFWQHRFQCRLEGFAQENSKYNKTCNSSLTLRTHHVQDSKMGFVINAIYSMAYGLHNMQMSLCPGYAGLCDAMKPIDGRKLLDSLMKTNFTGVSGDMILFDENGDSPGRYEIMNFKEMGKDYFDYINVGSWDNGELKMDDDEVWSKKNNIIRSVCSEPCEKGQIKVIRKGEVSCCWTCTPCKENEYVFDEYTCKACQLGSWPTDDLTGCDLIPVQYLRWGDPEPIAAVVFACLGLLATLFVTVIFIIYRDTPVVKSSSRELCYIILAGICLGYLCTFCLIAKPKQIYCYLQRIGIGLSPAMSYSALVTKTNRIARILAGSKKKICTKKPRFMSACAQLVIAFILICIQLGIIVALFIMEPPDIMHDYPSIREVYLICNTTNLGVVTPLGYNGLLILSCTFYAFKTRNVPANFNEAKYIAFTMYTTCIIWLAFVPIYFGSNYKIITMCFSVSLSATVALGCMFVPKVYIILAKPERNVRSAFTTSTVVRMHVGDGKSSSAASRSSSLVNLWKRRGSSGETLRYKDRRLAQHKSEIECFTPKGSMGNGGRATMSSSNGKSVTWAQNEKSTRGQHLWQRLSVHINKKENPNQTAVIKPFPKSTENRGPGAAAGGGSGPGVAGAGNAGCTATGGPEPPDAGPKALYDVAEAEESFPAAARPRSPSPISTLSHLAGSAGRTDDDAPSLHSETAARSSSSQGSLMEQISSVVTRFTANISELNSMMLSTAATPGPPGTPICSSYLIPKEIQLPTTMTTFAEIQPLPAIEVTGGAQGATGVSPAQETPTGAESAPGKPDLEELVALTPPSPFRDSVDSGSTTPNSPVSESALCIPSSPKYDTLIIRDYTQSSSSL

The first experiment addresses T1, rat mGluR5 receptor (Rattus norvegicus, UniProt P31424).
T1 construct: expressed in transfected cells; host or cells: HEK-293
Kind of experiment: [3H]-MPEP displacement binding assay, HEK-293 cell membranes expressing rat mGluR5. The conditions noted are these: [3H]-MPEP displacement, rat mGluR5; no Ki given; read-out: IC50 (printed in the Median Ki column instead of a Ki). In a few lines:
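Membranes from HEK-293 cells expressing rat mGluR5 (12-25 μg protein), incubated 60 min at room temperature with 4 nM [3H]-MPEP in 50 mM Tris pH 7.5, then filtered. Nonspecific binding defined with 10 μM MPEP.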
On to `COc1ccc(C(=O)N2CCN(c3cc4ccccc4s3)CC2)cc1C#Cc1ccccn1` [Compound 290, 1-(1-benzothiophen-2-yl)-4-[4-methoxy-3-(pyridin-2-ylethynyl)benzoyl]piperazine], for which the IC50 – broadly, the concentration that gives 50% inhibition – is above 10000 nM. Still for that read-out and setting: for `COc1ccc(C(=O)N2CCN(c3ncccc3Cl)CC2)cc1C#Cc1ccccc1[N+](=O)[O-]` [Compound 342, 1-(3-chloropyridin-2-yl)-4-{4-methoxy-3-[(2-nitrophenyl)ethynyl]benzoyl}piperazine] the value was above 10000 nM; for `COc1ccc(C(=O)N2CCN(c3ncccc3Cl)CC2)cc1C#Cc1cccc(OCc2ccccc2)c1` [Compound 343, 1-(3-{[3-(benzyloxy)phenyl]ethynyl}-4-methoxybenzoyl)-4-(3-chloropyridin-2-yl)piperazine], above 10000 nM; for `COc1ccc(C(=O)N2CCN(c3ncccc3Cl)CC2)cc1C#Cc1cccc(OC(F)(F)F)c1` [Compound 344, 1-(3-chloropyridin-2-yl)-4-(4-methoxy-3-{[3-(trifluoromethoxy)phenyl]ethynyl}benzoyl)piperazine], above 10000 nM.

For `COc1ccc(C(=O)N2CCN(c3ncccc3Cl)CC2)cc1C#Cc1ccc(OCc2ccccc2)cc1` [Compound 346, 1-(3-{[4-(benzyloxy)phenyl]ethynyl}-4-methoxybenzoyl)-4-(3-chloropyridin-2-yl)piperazine], the IC50 was above 10000 nM. On to `COc1ccc(C(=O)N2CCN(c3ncccc3Cl)CC2)cc1C#Cc1ccc(C(C)=O)cc1` [Compound 347, 1-{4-[(5-{[4-(3-chloropyridin-2-yl)piperazin-1-yl]carbonyl}-2-methoxyphenyl)ethynyl]phenyl}ethanone], for which the IC50 was above 10000 nM.

On to `COc1ccc(C(=O)N2CCN(c3ncccc3Cl)CC2)cc1C#Cc1ccc(OC(F)(F)F)cc1` [Compound 348, 1-(3-chloropyridin-2-yl)-4-(4-methoxy-3-{[4-(trifluoromethoxy)phenyl]ethynyl}benzoyl)piperazine], for which the IC50 is above 10000 nM. Consider `COc1ccc(C(=O)N2CCN(c3ncccc3Cl)CC2)cc1C#Cc1ccc(C(F)(F)F)cc1` [Compound 349, 1-(3-chloropyridin-2-yl)-4-(4-methoxy-3-{[4-(trifluoromethyl)phenyl]ethynyl}benzoyl)piperazine], for which the IC50 is above 10000 nM.

As to `COc1ccc(C(=O)N2CCN(c3ncccc3Cl)CC2)cc1C#Cc1ccc([N+](=O)[O-])cc1` [Compound 350, 1-(3-chloropyridin-2-yl)-4-{4-methoxy-3-[(4-nitrophenyl)ethynyl]benzoyl}piperazine], the IC50 is above 10000 nM.

Staying with this experiment, now noted: [3H]-MPEP displacement, rat mGluR5; read-out: Median Ki.
In the case of `COc1ccc(C(=O)N2CCN(S(=O)(=O)c3ccc(-n4cnnn4)cc3)CC2)cc1C#Cc1ccccn1` [Compound 284, 1-[4-methoxy-3-(pyridin-2-ylethynyl)benzoyl]-4-{[4-(1H-tetrazol-1-yl)phenyl]sulfonyl}piperazine], the Ki (usually the dissociation constant of the complex between target and ligand, obtained from inhibition or displacement) came to 376 nM. On the same count and under the same terms, with `COc1ccc(C(=O)N2CCN(Cc3ccc(Cl)c(Cl)c3)CC2)cc1C#Cc1ccccn1` [Compound 288, 1-(3,4-dichlorobenzyl)-4-[4-methoxy-3-(pyridin-2-ylethynyl)benzoyl]piperazine] the figure was 170 nM. Still for that read-out and setting: for `COc1ccc(C(=O)N2CCN(Cc3c(F)cccc3Cl)CC2)cc1C#Cc1ccccn1` [Compound 289, 1-(2-chloro-6-fluorobenzyl)-4-[4-methoxy-3-(pyridin-2-ylethynyl)benzoyl]piperazine] the value was 269 nM; for `COc1ccc(C(=O)N2CCN(c3nnc(-c4ccccc4)[nH]3)CC2)cc1C#Cc1ccccn1` [Compound 291, 1-[4-methoxy-3-(pyridin-2-ylethynyl)benzoyl]-4-(5-phenyl-4H-1,2,4-triazol-3-yl)piperazine], 199 nM. The same measure, in the same setting: with `COc1ccc(C(=O)N2CCN(c3cc(Cl)nc(SC)n3)CC2)cc1C#Cc1ccccn1` [Compound 294, 4-chloro-6-{4-[4-methoxy-3-(pyridin-2-ylethynyl)benzoyl]piperazin-1-yl}-2-(methylthio)pyrimidine] the figure was 99 nM. Consider `COc1ccc(C(=O)N2CCN(c3nc(Cl)ncc3F)CC2)cc1C#Cc1ccccn1` [Compound 295, 2-chloro-5-fluoro-4-{4-[4-methoxy-3-(pyridin-2-ylethynyl)benzoyl]piperazin-1-yl}pyrimidine], for which the inhibitory constant (Ki) came to 102 nM. As to `COc1ccc(C(=O)N2CCN(c3cc(Cl)nc(C)n3)CC2)cc1C#Cc1ccccn1` [Compound 297, 4-chloro-6-{4-[4-methoxy-3-(pyridin-2-ylethynyl)benzoyl]piperazin-1-yl}-2-methylpyrimidine], the Ki was found to be 159 nM. For `COc1nc(OC)nc(N2CCN(C(=O)c3ccc(OC)c(C#Cc4ccccn4)c3)CC2)n1` [Compound 305, 2,4-dimethoxy-6-{4-[4-methoxy-3-(pyridin-2-ylethynyl)benzoyl]piperazin-1-yl}-1,3,5-triazine], the Ki amounted to 229 nM. In the case of `Cc1ccc(C(=O)N2CCN(c3ncc(Cl)cc3Cl)CC2)cc1C#Cc1ccccn1` [Compound 310, 1-(3,5-dichloropyridin-2-yl)-4-[4-methyl-3-(pyridin-2-ylethynyl)benzoyl]piperazine], the Ki was 745 nM. Take `Cc1ccc(C(=O)N2CCN(c3ncccc3Cl)CC2)cc1C#Cc1ccccn1` [Compound 311, 1-(3-chloropyridin-2-yl)-4-[4-methyl-3-(pyridin-2-ylethynyl)benzoyl]piperazine]: the Ki amounted to 140 nM.

With `O=C(c1ccc(F)c(C#Cc2ccccn2)c1)N1CCN(c2ncccn2)CC1` [Compound 312, 2-{4-[4-Fluoro-3-(pyridin-2-ylethynyl)benzoyl]piperazin-1-yl}pyrimidine], the Ki came to 84 nM. Regarding `O=C(c1ccc(F)c(C#Cc2ccccn2)c1)N1CCN(c2ncc(Cl)cc2Cl)CC1` [Compound 314, 1-(3,5-dichloropyridin-2-yl)-4-[4-fluoro-3-(pyridin-2-ylethynyl)benzoyl]piperazine], the inhibition constant Ki worked out at 1840 nM.

Turning to `O=C(c1ccc(F)c(C#Cc2ccccn2)c1)N1CCN(c2ncccc2Cl)CC1` [Compound 315, 1-(3-chloropyridin-2-yl)-4-[4-fluoro-3-(pyridin-2-ylethynyl)benzoyl]piperazine], the Ki was 270 nM. `CCOc1ccc(C(=O)N2CCN(c3ncc(Cl)cc3Cl)CC2)cc1C#Cc1ccccn1` [Compound 319, 1-(3,5-dichloropyridin-2-yl)-4-[4-ethoxy-3-(pyridin-2-ylethynyl)benzoyl]piperazine]: the inhibition constant Ki was found to be 652 nM.

Take `CCOc1ccc(C(=O)N2CCN(c3ncccc3Cl)CC2)cc1C#Cc1ccccn1` [Compound 321, 1-(3-chloropyridin-2-yl)-4-[4-ethoxy-3-(pyridin-2-ylethynyl)benzoyl]piperazine]: the Ki was 149 nM.

On to `O=C(c1ccc(OCC2CC2)c(C#Cc2ccccn2)c1)N1CCN(c2ccccn2)CC1` [Compound 323, 1-{[4-(cyclopropylmethoxy)-3-(pyridin-2-ylethynyl)phenyl]carbonyl}-4-pyridin-2-ylpiperazine], for which the Ki came to 198 nM.

Take `O=C(c1ccc(OCC2CC2)c(C#Cc2ccccn2)c1)N1CCN(c2ncccn2)CC1` [Compound 325, 2-(4-{[4-(cyclopropylmethoxy)-3-(pyridin-2-ylethynyl)phenyl]carbonyl}piperazin-1-yl)pyrimidine]: the inhibition constant (Ki) amounted to 1340 nM. On to `COc1ccc(C(=O)N2CCN(c3ccccn3)C(=O)C2)cc1C#Cc1ccccn1` [Compound 330, 4-{[4-methoxy-3-(pyridin-2-ylethynyl)phenyl]carbonyl}-1-pyridin-2-ylpiperazin-2-one], for which the Ki was found to be 122 nM. Regarding `O=C(c1ccc(OC(F)(F)F)c(C#Cc2ccccn2)c1)N1CCN(c2ncccc2Cl)CC1` [Compound 336, 1-(3-chloropyridin-2-yl)-4-[3-(pyridin-2-ylethynyl)-4-(trifluoromethoxy)benzoyl]piperazine], the Ki came to 1070 nM. Take `O=C(c1ccc(OC(F)(F)F)c(C#Cc2ccccn2)c1)N1CCN(c2cccc(C(F)(F)F)c2)CC1` [Compound 337, 1-[3-(pyridin-2-ylethynyl)-4-(trifluoromethoxy)benzoyl]-4-[3-(trifluoromethyl)phenyl]piperazine]: the Ki is 1570 nM. On the same count and under the same terms, for `COc1nc(N2CCN(C(=O)c3ccc(OC(F)(F)F)c(C#Cc4ccccn4)c3)CC2)ncc1Br` [Compound 339, 5-bromo-4-methoxy-2-{4-[3-(pyridin-2-ylethynyl)-4-(trifluoromethoxy)benzoyl]piperazin-1-yl}pyrimidine] the value was 702 nM; for `COc1ccc(C(=O)N2CCN(c3ncccc3Cl)CC2)cc1C#Cc1ccccc1` [Compound 341, 1-(3-chloropyridin-2-yl)-4-[4-methoxy-3-(phenylethynyl)benzoyl]piperazine], 1130 nM. On the same count and under the same terms, with `COc1ccc(C(=O)N2CCN(c3ncccc3Cl)CC2)cc1C#Cc1ccccc1F` [Compound 351, 1-(3-chloropyridin-2-yl)-4-{3-[(2-fluorophenyl)ethynyl]-4-methoxybenzoyl}piperazine] the figure was 4300 nM. As to `COc1ccc(C(=O)N2CCN(c3ncccc3Cl)CC2)cc1C#Cc1ccc(Cl)cc1` [Compound 352, 1-{3-[(4-chlorophenyl)ethynyl]-4-methoxybenzoyl}-4-(3-chloropyridin-2-yl)piperazine], the inhibition constant Ki stood at 3190 nM. The same measure, in the same setting: with `COc1ccc(C(=O)N2CCN(c3ncccn3)CC2)cc1C#Cc1cccnc1` [Compound 354, 2-{4-[4-methoxy-3-(pyridin-3-ylethynyl)benzoyl]piperazin-1-yl}pyrimidine] the figure was 4970 nM; with `COc1ccc(C(=O)N2CCN(c3ncccn3)CC2)cc1C#Cc1ccncc1` [Compound 355, 2-{4-[4-methoxy-3-(pyridin-4-ylethynyl)benzoyl]piperazin-1-yl}pyrimidine], 1570 nM. Take `COc1ccc(C(=O)N2CCN(c3ncccn3)CC2)cc1C#Cc1cccc(OC(F)(F)F)c1` [Compound 356, 2-[4-(4-methoxy-3-{[3-(trifluoromethoxy)phenyl]ethynyl}benzoyl)piperazin-1-yl]pyrimidine]: the Ki amounted to 290 nM.
